Source: the supplement of paper PMC10307832

What was measured:
Experiment in all cases: relative viability (nuclei count vs DMSO), 5 days (fraction); higher = more cells survive
Vemurafenib + Alpelisib = compound: CCCS(=O)(=O)Nc1ccc(F)c(C(=O)c2c[nH]c3ncc(-c4ccc(Cl)cc4)cc23)c1F [Vemurafenib] + Cc1nc(NC(=O)N2CCC[C@H]2C(N)=O)sc1-c1ccnc(C(C)(C)C(F)(F)F)c1 [Alpelisib] (partner 2 µM)
In short: (§1)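 One day after seeding in 1536-well plates, lung cancer cell lines were dosed by pin tool. Dosing was either single-drug or a fixed anchor-drug dose plus five library-drug doses (not always all listed) in √10 steps. After 5 days, nuclei were stained in one fix-and-stain step and counted on 4× images, and relative viability is the nuclei count of treated wells over that of vehicle wells, given as the median of duplicate plates.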

Alpelisib + Crizotinib = compound: Cc1nc(NC(=O)N2CCC[C@H]2C(N)=O)sc1-c1ccnc(C(C)(C)C(F)(F)F)c1 [Alpelisib] + C[C@@H](Oc1cc(-c2cnn(C3CCNCC3)c2)cnc1N)c1c(Cl)ccc(F)c1Cl [Crizotinib] (partner 1 µM)
In short: as §1

OSI-027 + Olaparib = compound: COc1cccc2cc(-c3nc([C@H]4CC[C@H](C(=O)O)CC4)n4ncnc(N)c34)[nH]c12 [OSI-027] + O=C(c1cc(Cc2n[nH]c(=O)c3ccccc23)ccc1F)N1CCN(C(=O)C2CC2)CC1 [Olaparib] (partner 8 µM)
In short: as §1

OSI-027 + Tozasertib = compound: COc1cccc2cc(-c3nc([C@H]4CC[C@H](C(=O)O)CC4)n4ncnc(N)c34)[nH]c12 [OSI-027] + Cc1cc(Nc2cc(N3CCN(C)CC3)nc(Sc3ccc(NC(=O)C4CC4)cc3)n2)n[nH]1 [Tozasertib] (partner 0.1 µM)
In short: as §1

| Cell Line | relative viability (Vemurafenib + Alpelisib; first compound 0.03162 µM) | relative viability (Vemurafenib + Alpelisib; first compound 0.1 µM) | relative viability (Vemurafenib + Alpelisib; first compound 0.3162 µM) | relative viability (Vemurafenib + Alpelisib; first compound 1 µM) | relative viability (Alpelisib + Crizotinib; first compound 0.04 µM) | relative viability (Alpelisib + Crizotinib; first compound 0.1265 µM) | relative viability (Alpelisib + Crizotinib; first compound 0.4 µM) | relative viability (Alpelisib + Crizotinib; first compound 1.265 µM) | relative viability (Alpelisib + Crizotinib; first compound 4 µM) | relative viability (OSI-027 + Olaparib; first compound 0.01 µM) | relative viability (OSI-027 + Olaparib; first compound 0.03162 µM) | relative viability (OSI-027 + Olaparib; first compound 0.1 µM) | relative viability (OSI-027 + Olaparib; first compound 0.3162 µM) | relative viability (OSI-027 + Olaparib; first compound 1 µM) | relative viability (OSI-027 + Tozasertib; first compound 0.01 µM) | relative viability (OSI-027 + Tozasertib; first compound 0.03162 µM) | relative viability (OSI-027 + Tozasertib; first compound 0.1 µM) | relative viability (OSI-027 + Tozasertib; first compound 0.3162 µM) | relative viability (OSI-027 + Tozasertib; first compound 1 µM) |
| --- | --- | --- | --- | --- | --- | --- | --- | --- | --- | --- | --- | --- | --- | --- | --- | --- | --- | --- | --- |
| IA-LM | 0.824 | 0.81 | 0.777 | 0.548 | 0.829 | 0.643 | 1.23 | 0.718 | 0.818 | 0.898 | 0.776 | 0.733 | 0.485 | 0.212 | – | – | – | – | – |
| NCI-H1650 | – | – | – | – | 1.01 | 0.941 | 1.02 | 0.847 | 0.956 | 0.794 | 0.825 | 0.873 | 0.807 | 0.722 | 0.454 | 0.347 | 0.36 | 0.424 | 0.355 |
| NCI-H322M | 0.845 | – | 0.872 | 0.707 | 0.797 | 0.955 | 0.892 | 0.708 | 0.693 | 0.818 | 0.718 | 0.813 | 0.666 | 0.505 | 0.488 | 0.485 | 0.413 | 0.397 | 0.307 |
| SW 1573 | 0.769 | 0.667 | 0.781 | 0.551 | 0.867 | 0.784 | 0.689 | 0.649 | 0.593 | 0.485 | 0.513 | 0.398 | 0.444 | 0.293 | 0.186 | 0.197 | 0.206 | 0.142 | 0.178 |
| HCC-827 | 0.959 | – | 1.01 | 0.9 | 0.927 | 0.884 | 0.949 | 0.91 | 0.88 | 0.669 | 0.58 | 0.648 | 0.599 | 0.326 | 0.447 | 0.478 | 0.456 | 0.343 | 0.363 |
| LU99A | 0.518 | 0.486 | 0.52 | 0.423 | 0.544 | 0.471 | 0.509 | 0.385 | 0.313 | 0.279 | 0.231 | 0.251 | 0.201 | 0.2 | 0.249 | 0.302 | 0.252 | 0.239 | 0.175 |
| LK-2 | 1.07 | 1.07 | 1.22 | 0.706 | 0.284 | 0.188 | 0.215 | 0.233 | 0.252 | 0.611 | 0.642 | 0.654 | 0.476 | 0.173 | 0.186 | 0.188 | 0.144 | 0.162 | 0.145 |
| EMC-BAC-2 | 0.704 | 0.657 | 0.704 | 0.698 | 0.752 | 0.778 | 0.753 | 0.608 | 0.496 | 0.487 | 0.489 | 0.468 | 0.402 | 0.29 | 0.281 | 0.284 | 0.254 | 0.287 | 0.24 |
| NCI-H2342 | – | – | – | – | – | – | – | – | – | 0.522 | 0.385 | 0.439 | 0.338 | 0.314 | 0.445 | 0.509 | 0.492 | 0.449 | 0.421 |
| NCI-H460 | 0.349 | 0.357 | 0.631 | 0.593 | 0.855 | 1.02 | 0.926 | 0.285 | 0.296 | 0.663 | 0.369 | 0.41 | 0.448 | 0.239 | 0.511 | 0.338 | 0.469 | 0.593 | 0.278 |
| NCI-H441 | 0.791 | 0.741 | – | 0.534 | 0.743 | 0.567 | 0.746 | 0.432 | 0.435 | 0.649 | 0.58 | 0.548 | 0.494 | 0.3 | 0.625 | 0.72 | 0.629 | 0.535 | 0.489 |
| NCI-H661 | 0.43 | 0.478 | 0.409 | 0.58 | 0.968 | 0.96 | 1.07 | 1.01 | 0.937 | 0.852 | 0.735 | 0.748 | 0.712 | 0.423 | 0.357 | 0.374 | 0.362 | 0.344 | 0.351 |
| NCI-H727 | 0.519 | 0.49 | 0.849 | 0.574 | 0.839 | 0.771 | 0.891 | 0.717 | 0.508 | 0.675 | 0.688 | 0.671 | 0.752 | 0.556 | 0.584 | 0.65 | 0.716 | 0.725 | 0.456 |
| NCI-H1651 | 0.903 | 0.831 | 0.896 | 0.909 | 0.845 | 0.906 | 0.889 | 0.784 | 0.694 | 0.199 | 0.173 | 0.178 | 0.189 | 0.186 | 0.669 | 0.642 | 0.801 | 0.692 | 0.591 |
| NCI-H1355 | 0.823 | 0.689 | 0.797 | 0.88 | 1.07 | 1.11 | 1.09 | 0.809 | 0.824 | 0.702 | 0.667 | 0.663 | 0.521 | 0.342 | 0.546 | 0.492 | 0.541 | 0.461 | 0.361 |
| NCI-H1793 | 0.659 | – | 0.758 | 0.808 | – | – | – | – | – | 0.866 | 0.791 | 0.729 | 0.363 | 0.233 | 0.284 | 0.313 | 0.28 | 0.239 | 0.209 |
| NCI-H1666 | 0.872 | – | 1.07 | 0.965 | 0.914 | 0.87 | 0.932 | 0.765 | 0.747 | 0.777 | 0.67 | 0.744 | 0.77 | 0.71 | 0.611 | 0.686 | 0.646 | 0.629 | 0.537 |
| NCI-H838 | 0.879 | 0.957 | – | 1.04 | 0.774 | 0.768 | 0.932 | 0.73 | 0.772 | 0.791 | 0.856 | 0.705 | 0.492 | 0.437 | 0.307 | 0.482 | 0.264 | 0.26 | 0.214 |
